MIC, inhibition and Ratio data for ten compounds are collected here from ChEMBL document CHEMBL2150945, “Synthesis and biological evaluation of novel piperazine derivatives of flavone as potent anti-inflammatory and antimicrobial agent” (2012).

Assay [1] relates to Aspergillus niger. The experiment in a line: Antifungal activity against Aspergillus niger MTCC 281 after 2 to 3 days by modified agar well diffusion method. The class given is functional.
Assay [2] has as its system Escherichia coli. The experiment in a line: Antibacterial activity against Escherichia coli MTCC 443 after 24 hrs by modified agar well diffusion method. Type of assay: functional. Particulars: MTCC 443, 24 h.
The test system of assay [3] is THP-1. The experiment in a line: Antiinflammatory activity in human PMA-activated THP1 cells assessed as inhibition of LPS-induced TNFalpha production at 10 uM incubated for 30 mins prior to LPS-challenge measured after 24 hrs by ELISA relative to control. The class given is functional.
Assay [4] has as its system Aspergillus flavus. In words: Antifungal activity against Aspergillus flavus MTCC 277 after 2 to 3 days by modified agar well diffusion method. Type of assay: functional.
Assay [5] concerns Fusarium solani. In words: Antifungal activity against Fusarium solani MTCC 350 after 2 to 3 days by modified agar well diffusion method. Type of assay: functional.
For assay [6], the system named is THP-1. The experiment in a line: Antiinflammatory activity in human PMA-activated THP1 cells assessed as inhibition of LPS-induced IL6 production at 10 uM incubated for 30 mins prior to LPS-challenge measured after 24 hrs by ELISA relative to control. The class given is functional.
Assay [7] concerns Staphylococcus aureus. The experiment in a line: Antibacterial activity against Staphylococcus aureus MTCC 96 after 24 hrs by modified agar well diffusion method. Type of assay: functional. Particulars: MTCC 96, 24 h.
Assay [8] deals with Salmonella typhimurium. The experiment in a line: Antibacterial activity against Salmonella typhimurium MTCC 98 after 24 hrs by modified agar well diffusion method. Type of assay: functional, Salmonella enterica subsp. enterica serovar Typhimurium. The note with it: Salmonella enterica, MTCC 98, 24 h.
Assay [9] relates to Candida albicans. The experiment in a line: Antifungal activity against Candida albicans MTCC 227 after 2 to 3 days by modified agar well diffusion method. The class given is functional.
For assay [10], the system named is Bacillus subtilis. In words: Antibacterial activity against Bacillus subtilis MTCC 441 after 24 hrs by modified agar well diffusion method. Particulars: MTCC 441, 24 h. The class given is functional.
In assay [11] the test system is Escherichia coli. The experiment in a line: Ratio of ciprofloxacin MIC to compound MIC for Escherichia coli MTCC 443. The class given is functional.
Assay [12] deals with Aspergillus flavus. In words: Ratio of miconazole MIC to compound MIC for Aspergillus flavus MTCC 277. The class given is functional.
For assay [13], the system named is Aspergillus niger. The experiment in a line: Ratio of miconazole MIC to compound MIC for Aspergillus niger MTCC 281. Type of assay: functional.
The test system of assay [14] is Staphylococcus aureus. In words: Ratio of ciprofloxacin MIC to compound MIC for Staphylococcus aureus MTCC 96. Type of assay: functional.
In assay [15] the test system is Bacillus subtilis. In words: Ratio of ciprofloxacin MIC to compound MIC for Bacillus subtilis MTCC 441. Type of assay: functional.
The subject of assay [16] is Fusarium solani. In words: Ratio of miconazole MIC to compound MIC for Fusarium solani MTCC 350. Type of assay: functional.
Assay [17] has as its system Salmonella typhimurium. In words: Ratio of ciprofloxacin MIC to compound MIC for Salmonella typhimurium MTCC 98. Type of assay: functional, Salmonella enterica subsp. enterica serovar Typhimurium.
Assay [18] concerns Candida albicans. In words: Ratio of miconazole MIC to compound MIC for Candida albicans MTCC 227. Type of assay: functional.

≈ marks a conversion by molar mass, not a printed value.

Regarding `COc1ccc2oc(N3CCN(Cc4ccccc4)CC3)cc(=O)c2c1`, the MIC in the assay with Aspergillus niger [1] is 30 mg/L (≈ 85.6 µM); with Escherichia coli [2] it was 65 mg/L (≈ 185 µM); in the assay on Aspergillus flavus [4] it was 65 mg/L (≈ 185 µM); in the assay on Fusarium solani [5] it was 45 mg/L (≈ 128 µM); against Staphylococcus aureus [7] it was 70 mg/L (≈ 200 µM); against Salmonella typhimurium [8], 65 mg/L (≈ 185 µM). Further, the minimum inhibitory concentration (MIC) in the assay on Candida albicans [9] and with Bacillus subtilis [10] was 55 mg/L (≈ 157 µM) in each case. For the same compound, the inhibition at 10 µM in the assay with THP-1 [3] and in the assay on THP-1 [6] was 0% each time.

As for `COc1cc(OC)c2c(=O)cc(CNC3CCN(Cc4ccccc4)CC3)oc2c1`, the Ratio in the assay with Escherichia coli [11], in the assay on Aspergillus flavus [12], in the assay on Aspergillus niger [13], in the assay with Staphylococcus aureus [14], in the assay with Bacillus subtilis [15] and in the assay on Fusarium solani [16] was 2 each time. Further, the Ratio with Salmonella typhimurium [17] and with Candida albicans [18] was 2 each time. For the same compound, the MIC in the assay on Aspergillus niger [1] was determined as 10 mg/L (≈ 24.5 µM); against Escherichia coli [2], 10 mg/L (≈ 24.5 µM); with Aspergillus flavus [4], 10 mg/L (≈ 24.5 µM); against Fusarium solani [5], 15 mg/L (≈ 36.7 µM); against Staphylococcus aureus [7], 10 mg/L (≈ 24.5 µM); in the assay with Salmonella typhimurium [8], 15 mg/L (≈ 36.7 µM). The MIC against Candida albicans [9] and in the assay with Bacillus subtilis [10] was 10 mg/L (≈ 24.5 µM) throughout. Also, the results for the inhibition at 10 µM with THP-1 [3] and in the assay on THP-1 [6] were 20% and 35%, respectively.

For the compound `COc1ccc2oc(NC3CCN(Cc4ccccc4)CC3)cc(=O)c2c1`, the Ratio in the assay on Escherichia coli [11], in the assay on Aspergillus flavus [12], in the assay with Aspergillus niger [13], in the assay on Staphylococcus aureus [14], in the assay on Bacillus subtilis [15] and with Fusarium solani [16] was 2 in each case. Besides, the Ratio with Salmonella typhimurium [17] and in the assay with Candida albicans [18] was 2 in each case. For the same compound, the MIC with Aspergillus niger [1] turned out to be 10 mg/L (≈ 27.4 µM); with Escherichia coli [2] it was 10 mg/L (≈ 27.4 µM); against Aspergillus flavus [4] it was 15 mg/L (≈ 41.2 µM); in the assay on Fusarium solani [5] it was 10 mg/L (≈ 27.4 µM); against Staphylococcus aureus [7], 10 mg/L (≈ 27.4 µM); against Salmonella typhimurium [8] it was 10 mg/L (≈ 27.4 µM). Also, the MIC was found to be 15 mg/L (≈ 41.2 µM) in the assay with Candida albicans [9] and 10 mg/L (≈ 27.4 µM) against Bacillus subtilis [10]. Further, the inhibition at 10 µM with THP-1 [3] is 10%; in the assay on THP-1 [6], 15%.

`COc1ccc2oc(N3CCOCC3)cc(=O)c2c1`: the MIC in the assay with Aspergillus niger [1] turned out to be 90 mg/L (≈ 344 µM); against Escherichia coli [2], 90 mg/L (≈ 344 µM); against Staphylococcus aureus [7], 95 mg/L (≈ 364 µM); against Salmonella typhimurium [8] it was 90 mg/L (≈ 344 µM); with Bacillus subtilis [10] it was 75 mg/L (≈ 287 µM). In addition, the inhibition at 10 µM in the assay on THP-1 [3] came to 80%; in the assay on THP-1 [6], 84%.

As to `COc1ccc(N2CCN(c3cc(=O)c4cc(OC)ccc4o3)CC2)cc1`, the MIC was 75 mg/L (≈ 205 µM) in the assay on Aspergillus niger [1]; 75 mg/L (≈ 205 µM) with Escherichia coli [2]; 90 mg/L (≈ 246 µM) with Aspergillus flavus [4]; 85 mg/L (≈ 232 µM) against Fusarium solani [5]; 60 mg/L (≈ 164 µM) against Staphylococcus aureus [7]; 80 mg/L (≈ 218 µM) against Salmonella typhimurium [8]. In addition, the MIC with Candida albicans [9] came to 95 mg/L (≈ 259 µM); against Bacillus subtilis [10] it was 45 mg/L (≈ 123 µM). Also, the values for the inhibition at 10 µM with THP-1 [3] and in the assay with THP-1 [6] were 79% and 83%, respectively.

For `O=C(O)c1cn(C2CC2)c2cc(N3CCNCC3)c(F)cc2c1=O` [CIPROFLOXACIN], the MIC with Escherichia coli [2] stood at 15 mg/L (≈ 45.3 µM); in the assay on Salmonella typhimurium [8], 25 mg/L (≈ 75.4 µM); in the assay on Bacillus subtilis [10], 25 mg/L (≈ 75.4 µM).

With `COc1cc(OC)c2c(=O)cc(CN3CCN(c4ccccc4)CC3)oc2c1`, the MIC against Aspergillus niger [1] turned out to be 90 mg/L (≈ 237 µM); against Escherichia coli [2], 90 mg/L (≈ 237 µM); against Aspergillus flavus [4] it was 85 mg/L (≈ 223 µM); in the assay with Fusarium solani [5], 95 mg/L (≈ 250 µM); with Staphylococcus aureus [7], 90 mg/L (≈ 237 µM); against Salmonella typhimurium [8] it was 90 mg/L (≈ 237 µM). Further, the MIC with Candida albicans [9] is 80 mg/L (≈ 210 µM); in the assay with Bacillus subtilis [10], 90 mg/L (≈ 237 µM). For the same compound, the figures for the inhibition at 10 µM with THP-1 [3] and in the assay with THP-1 [6] were 45% and 50%, respectively.

On to `CCN1CCN(c2cc(=O)c3cc(OC)ccc3o2)CC1`, for which the MIC against Aspergillus niger [1] stood at 60 mg/L (≈ 208 µM); in the assay on Aspergillus flavus [4], 70 mg/L (≈ 243 µM); against Fusarium solani [5] it was 70 mg/L (≈ 243 µM); against Staphylococcus aureus [7] it was 90 mg/L (≈ 312 µM); against Candida albicans [9] it was 75 mg/L (≈ 260 µM); in the assay on Bacillus subtilis [10], 80 mg/L (≈ 277 µM). For the same compound, the inhibition at 10 µM in the assay with THP-1 [3] stood at 30%; in the assay with THP-1 [6], 40%.

Take `Clc1ccc(COC(Cn2ccnc2)c2ccc(Cl)cc2Cl)c(Cl)c1` (stereo not drawn) [MICONAZOLE]: the MIC in the assay with Aspergillus niger [1] came to 20 mg/L (≈ 48.1 µM); against Aspergillus flavus [4], 20 mg/L (≈ 48.1 µM); with Fusarium solani [5] it was 15 mg/L (≈ 36 µM); in the assay on Candida albicans [9], 25 mg/L (≈ 60.1 µM).

`COc1ccc2oc(N3CCN(c4ncccn4)CC3)cc(=O)c2c1`: the MIC was 70 mg/L (≈ 207 µM) against Aspergillus niger [1]; 80 mg/L (≈ 236 µM) in the assay on Escherichia coli [2]; 85 mg/L (≈ 251 µM) in the assay on Aspergillus flavus [4]; 95 mg/L (≈ 281 µM) against Fusarium solani [5]; 80 mg/L (≈ 236 µM) against Staphylococcus aureus [7]; 80 mg/L (≈ 236 µM) in the assay on Salmonella typhimurium [8]. Moreover, the MIC with Candida albicans [9] stood at 85 mg/L (≈ 251 µM); in the assay on Bacillus subtilis [10] it was 65 mg/L (≈ 192 µM). Besides, the inhibition at 10 µM was found to be 82% in the assay on THP-1 [3] and 87% in the assay on THP-1 [6].
